Test [1] concerns the target T1, Mannose-6-phosphate isomerase (Homo sapiens, UniProt P34949).
T1 sequence (P34949 whole entry): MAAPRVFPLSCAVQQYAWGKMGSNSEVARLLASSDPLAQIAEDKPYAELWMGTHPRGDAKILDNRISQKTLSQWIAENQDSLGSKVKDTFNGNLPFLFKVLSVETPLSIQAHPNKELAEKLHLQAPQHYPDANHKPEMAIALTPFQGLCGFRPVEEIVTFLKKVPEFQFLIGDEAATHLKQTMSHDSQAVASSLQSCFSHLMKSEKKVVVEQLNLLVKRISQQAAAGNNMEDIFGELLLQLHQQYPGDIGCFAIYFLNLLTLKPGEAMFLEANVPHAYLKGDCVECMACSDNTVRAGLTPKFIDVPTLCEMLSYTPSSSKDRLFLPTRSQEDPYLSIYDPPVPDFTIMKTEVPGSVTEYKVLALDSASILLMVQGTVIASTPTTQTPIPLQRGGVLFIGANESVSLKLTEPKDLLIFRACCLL
Put plainly: PMI enzyme inhibitors, confirmation, biochemical, fluorescence intensity (AID 1535).

The target of another test is Phosphomannomutase 2 (Homo sapiens, UniProt O15305). Kind of test: Counter screen SAR assay for PMM2 inhibitors via a fluorescence intensity assay. [Related pubchem assays (depositor defined):AID1545, AID1574].
Sequence of Phosphomannomutase 2 (O15305 whole entry): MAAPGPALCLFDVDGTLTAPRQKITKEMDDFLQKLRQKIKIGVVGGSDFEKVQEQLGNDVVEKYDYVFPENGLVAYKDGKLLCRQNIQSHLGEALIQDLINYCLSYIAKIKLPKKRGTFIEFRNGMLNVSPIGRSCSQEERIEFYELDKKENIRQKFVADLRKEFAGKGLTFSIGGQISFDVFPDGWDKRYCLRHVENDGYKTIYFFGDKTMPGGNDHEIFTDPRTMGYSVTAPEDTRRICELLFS
The target of test [2] is Phosphoethanolamine/phosphocholine phosphatase (Homo sapiens, UniProt Q8TCT1). Put plainly: SAR assay for compounds that inhibit PHOSPHO1. [Related pubchem assays (depositor defined):AID1545, AID1565, AID1574].
Sequence of Phosphoethanolamine/phosphocholine phosphatase (Q8TCT1 whole entry): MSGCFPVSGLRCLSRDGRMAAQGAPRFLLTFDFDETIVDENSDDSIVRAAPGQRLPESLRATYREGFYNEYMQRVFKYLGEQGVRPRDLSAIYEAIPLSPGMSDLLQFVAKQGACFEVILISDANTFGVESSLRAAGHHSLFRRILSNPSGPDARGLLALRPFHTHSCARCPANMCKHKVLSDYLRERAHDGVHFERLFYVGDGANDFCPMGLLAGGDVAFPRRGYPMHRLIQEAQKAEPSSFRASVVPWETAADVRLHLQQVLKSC
Test [3] in a line: HEp-2 cell cytotoxicity, dose response, cytotoxicity control for RSV inhibitor project, HTS (AID 2410). The class given is functional. The following applies: human respiratory syncytial virus.
Test [4] deals with T2, E3 ubiquitin-protein ligase XIAP (Homo sapiens, UniProt P98170). Put plainly: XIAP antagonists, biochemical, IAP family, fluorescence polarization (AID 1018). The class given is functional. Background: Polarisation of emitted light reports the rotation of a fluorescent probe.
T2 sequence (P98170 whole entry): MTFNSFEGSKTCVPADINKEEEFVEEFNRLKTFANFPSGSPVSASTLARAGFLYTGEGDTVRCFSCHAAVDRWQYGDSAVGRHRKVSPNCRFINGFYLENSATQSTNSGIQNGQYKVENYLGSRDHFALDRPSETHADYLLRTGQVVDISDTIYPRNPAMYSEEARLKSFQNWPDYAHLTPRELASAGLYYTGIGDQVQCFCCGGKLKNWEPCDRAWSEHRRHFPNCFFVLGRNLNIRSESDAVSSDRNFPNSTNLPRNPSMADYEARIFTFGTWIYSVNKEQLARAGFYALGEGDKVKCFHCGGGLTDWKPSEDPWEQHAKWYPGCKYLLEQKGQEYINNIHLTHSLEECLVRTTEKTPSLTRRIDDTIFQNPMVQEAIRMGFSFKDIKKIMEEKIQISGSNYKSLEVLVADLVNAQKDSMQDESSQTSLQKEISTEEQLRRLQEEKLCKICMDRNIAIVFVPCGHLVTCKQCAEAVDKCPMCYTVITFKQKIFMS
For test [5], the target named is T2, E3 ubiquitin-protein ligase XIAP. Put plainly: Counter Screen using XIAP-Bir3 for Chemical Antagonists of Bir1/2 domains of IAP-family anti-apoptotic proteins. [Related pubchem assays (depositor defined):AID1018, AID1449, AID1514, AID1638, AID1749, AID1750, AID488957, AID488963].
Test [6] addresses G-protein coupled receptor 55 (Homo sapiens, UniProt Q9Y2T6). Kind of test: GPR55 agonists via beta-arrestin recruitment, primary screen, imaging, U2OS cells, beta-arrestin-GFP redistribution (AID 1961). The class given is functional.
A further test addresses T3, CAAX prenyl protease 2 (Saccharomyces cerevisiae S288c, UniProt Q03530).
T3 sequence (Q03530 whole entry): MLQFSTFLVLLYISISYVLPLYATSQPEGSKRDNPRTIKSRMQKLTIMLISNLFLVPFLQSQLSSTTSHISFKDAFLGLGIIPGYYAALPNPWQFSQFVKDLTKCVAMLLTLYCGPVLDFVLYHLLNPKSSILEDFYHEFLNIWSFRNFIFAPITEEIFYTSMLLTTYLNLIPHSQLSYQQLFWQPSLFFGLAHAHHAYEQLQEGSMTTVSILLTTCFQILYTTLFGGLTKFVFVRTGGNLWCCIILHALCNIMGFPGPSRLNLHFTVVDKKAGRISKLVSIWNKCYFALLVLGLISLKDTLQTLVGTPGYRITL
The test is classed as biochemical.

The next test has as its target Beta-galactosidase (Escherichia coli, UniProt Q8VNN2). Kind of test: beta-galactosidase enzyme inhibitors and activators, dose response, artefact control for CCR6 antagonist project, biochemical, E. coli enzyme, set 3 (AID 504712). The test is classed as functional.
The target of test [7] is C-C chemokine receptor type 6 (Homo sapiens, UniProt P51684). Kind of test: CCR6 receptor antagonists, dose response, cell-based, luminescent beta-arrestin readout (AID 504728). The class given is functional.
Sequence of C-C chemokine receptor type 6 (P51684 whole entry): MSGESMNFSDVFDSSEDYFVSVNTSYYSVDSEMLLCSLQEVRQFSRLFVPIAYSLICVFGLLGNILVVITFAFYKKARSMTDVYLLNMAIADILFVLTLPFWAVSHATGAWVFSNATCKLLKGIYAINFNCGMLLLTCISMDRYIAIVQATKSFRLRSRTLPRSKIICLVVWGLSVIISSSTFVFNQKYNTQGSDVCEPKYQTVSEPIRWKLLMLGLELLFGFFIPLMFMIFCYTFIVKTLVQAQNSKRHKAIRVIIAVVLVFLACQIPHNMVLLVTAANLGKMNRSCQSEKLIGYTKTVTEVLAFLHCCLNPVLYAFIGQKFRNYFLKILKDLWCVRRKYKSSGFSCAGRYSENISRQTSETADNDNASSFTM
The target of a further test is T4, CAAX prenyl protease 1 (Saccharomyces cerevisiae S288c, UniProt P47154).
T4 sequence (P47154 whole entry): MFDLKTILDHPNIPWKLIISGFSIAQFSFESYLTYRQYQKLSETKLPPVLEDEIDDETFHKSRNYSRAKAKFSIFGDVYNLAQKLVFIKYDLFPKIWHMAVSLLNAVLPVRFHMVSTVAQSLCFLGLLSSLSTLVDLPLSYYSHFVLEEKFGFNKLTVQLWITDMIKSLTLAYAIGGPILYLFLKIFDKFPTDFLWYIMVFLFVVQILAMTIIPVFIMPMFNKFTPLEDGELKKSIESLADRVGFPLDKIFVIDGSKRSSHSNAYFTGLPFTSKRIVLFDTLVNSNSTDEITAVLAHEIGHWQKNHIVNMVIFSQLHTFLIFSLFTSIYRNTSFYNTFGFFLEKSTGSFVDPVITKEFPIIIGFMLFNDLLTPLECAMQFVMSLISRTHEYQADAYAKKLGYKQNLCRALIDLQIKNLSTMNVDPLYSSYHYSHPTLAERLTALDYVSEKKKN
Kind of test: Ste24 protease inhibitors, dose response, biochemical, S. cerevisiae, plate reader, cherry-pick (AID 488815).

The target of another test is T5, Hexokinase HKDC1 (Homo sapiens, UniProt Q2TB90).
T5 sequence (Q2TB90 whole entry): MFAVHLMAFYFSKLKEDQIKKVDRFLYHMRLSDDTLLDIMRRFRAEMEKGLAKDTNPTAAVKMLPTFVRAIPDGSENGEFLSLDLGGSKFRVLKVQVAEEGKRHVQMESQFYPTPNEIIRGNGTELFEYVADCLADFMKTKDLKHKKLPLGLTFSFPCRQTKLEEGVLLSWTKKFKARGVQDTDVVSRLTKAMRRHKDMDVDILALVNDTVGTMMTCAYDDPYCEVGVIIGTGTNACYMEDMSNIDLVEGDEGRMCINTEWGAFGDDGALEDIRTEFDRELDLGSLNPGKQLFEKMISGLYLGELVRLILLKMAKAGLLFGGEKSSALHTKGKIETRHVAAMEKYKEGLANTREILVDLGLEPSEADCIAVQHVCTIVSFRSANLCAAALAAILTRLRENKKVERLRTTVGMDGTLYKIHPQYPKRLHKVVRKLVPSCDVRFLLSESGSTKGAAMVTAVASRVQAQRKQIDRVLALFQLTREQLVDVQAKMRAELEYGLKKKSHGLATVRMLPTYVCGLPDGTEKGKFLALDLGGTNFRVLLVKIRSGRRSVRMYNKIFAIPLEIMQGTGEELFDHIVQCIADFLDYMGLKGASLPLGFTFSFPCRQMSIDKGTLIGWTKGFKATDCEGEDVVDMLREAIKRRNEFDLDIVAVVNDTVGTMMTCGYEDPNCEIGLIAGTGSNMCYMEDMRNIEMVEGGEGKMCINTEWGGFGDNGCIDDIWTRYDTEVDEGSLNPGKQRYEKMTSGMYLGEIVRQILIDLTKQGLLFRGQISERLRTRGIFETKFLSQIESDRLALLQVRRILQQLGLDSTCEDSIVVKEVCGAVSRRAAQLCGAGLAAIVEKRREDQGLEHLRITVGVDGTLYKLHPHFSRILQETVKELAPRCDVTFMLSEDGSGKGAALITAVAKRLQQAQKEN
Kind of test: HKDC1 hexokinase activators, dose response, biochemical, W721R variant (AID 504730). The test is classed as functional.

Test [8] concerns the target DNA dC->dU-editing enzyme APOBEC-3G (Homo sapiens, UniProt Q9HC16). Put plainly: Dose Response confirmation of small molecule APOBEC3G DNA Deaminase Inhibitors via a fluorescence-based single-stranded DNA deaminase assay. [Related pubchem assays (depositor defined):AID493012, AID493028]. The class given is functional.
For test [9], the target named is Glucose-6-phosphate 1-dehydrogenase (Homo sapiens, UniProt P11413). Kind of test: human G6PD enzyme inhibitors, dose response, selectivity assay for P. falciparum G6PD inhibitor project, biochemical, fluorescence (AID 504792). The class given is functional.
Sequence of Glucose-6-phosphate 1-dehydrogenase (P11413 whole entry): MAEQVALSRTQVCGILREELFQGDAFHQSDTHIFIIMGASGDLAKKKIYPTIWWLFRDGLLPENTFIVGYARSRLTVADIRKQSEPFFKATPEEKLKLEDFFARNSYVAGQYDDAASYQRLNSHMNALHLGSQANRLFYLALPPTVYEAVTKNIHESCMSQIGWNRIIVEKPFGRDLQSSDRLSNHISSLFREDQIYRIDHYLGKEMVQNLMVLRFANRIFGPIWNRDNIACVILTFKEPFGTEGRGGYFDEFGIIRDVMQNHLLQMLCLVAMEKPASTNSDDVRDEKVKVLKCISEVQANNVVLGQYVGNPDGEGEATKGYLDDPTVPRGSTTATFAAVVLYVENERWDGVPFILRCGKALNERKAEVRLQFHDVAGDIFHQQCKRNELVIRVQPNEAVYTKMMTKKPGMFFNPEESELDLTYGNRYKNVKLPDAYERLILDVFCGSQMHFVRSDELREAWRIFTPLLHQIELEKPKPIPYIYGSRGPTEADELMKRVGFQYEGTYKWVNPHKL
Test [10] concerns the target DNA dC->dU-editing enzyme APOBEC-3A (Homo sapiens, UniProt P31941). Put plainly: APOBEC3A DNA deaminase inhibitors, dose response, biochemical (AID 504722). The test is classed as functional.
In another test the target is T6, Hexokinase-1 (Homo sapiens, UniProt P19367).
T6 sequence (P19367 whole entry): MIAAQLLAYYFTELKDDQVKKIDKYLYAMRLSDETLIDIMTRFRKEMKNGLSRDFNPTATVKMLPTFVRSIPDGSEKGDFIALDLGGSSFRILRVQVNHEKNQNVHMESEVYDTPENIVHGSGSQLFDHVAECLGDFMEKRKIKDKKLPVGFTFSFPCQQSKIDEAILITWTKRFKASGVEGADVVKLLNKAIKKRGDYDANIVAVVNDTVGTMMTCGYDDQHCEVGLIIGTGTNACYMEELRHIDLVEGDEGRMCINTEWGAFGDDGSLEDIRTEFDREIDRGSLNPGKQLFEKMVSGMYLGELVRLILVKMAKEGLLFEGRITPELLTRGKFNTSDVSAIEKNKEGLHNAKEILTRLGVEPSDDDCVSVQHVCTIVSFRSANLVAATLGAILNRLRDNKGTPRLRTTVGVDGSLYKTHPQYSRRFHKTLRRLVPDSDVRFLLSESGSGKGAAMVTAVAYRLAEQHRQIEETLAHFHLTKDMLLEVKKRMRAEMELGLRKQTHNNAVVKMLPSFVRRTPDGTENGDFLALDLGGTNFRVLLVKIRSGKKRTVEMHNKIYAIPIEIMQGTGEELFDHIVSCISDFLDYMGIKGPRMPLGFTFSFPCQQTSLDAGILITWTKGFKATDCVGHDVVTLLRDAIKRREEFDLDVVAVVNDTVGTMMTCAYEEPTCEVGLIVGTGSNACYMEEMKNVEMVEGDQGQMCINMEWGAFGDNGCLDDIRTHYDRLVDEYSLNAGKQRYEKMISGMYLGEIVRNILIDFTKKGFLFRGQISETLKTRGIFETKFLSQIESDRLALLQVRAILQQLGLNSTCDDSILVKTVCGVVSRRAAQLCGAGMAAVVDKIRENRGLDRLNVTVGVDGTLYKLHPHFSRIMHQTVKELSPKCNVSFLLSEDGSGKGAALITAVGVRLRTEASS
Put plainly: hexokinase 1 activators, dose response, selectivity assay for HKDC1 activator project, biochemical (AID 504762). The test is classed as functional.

A short description of test [11]: Luminescence Cell-Based Dose Retest to Confirm Inhibitors of Cancer Stem Cells. [Related pubchem assays (depositor defined):AID2717, AID2721]. The following applies: Homo sapiens. The class given is functional.
Test [12] in a line: cytotoxicity in MIN6 insulinoma cells, dose response, cytotoxicity control, cell-based, mouse insulinoma (AID 2122).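 Further: confirmatory high-throughput counterscreen run to flag cytotoxic compounds; mouse MIN-6 beta cells carrying an insulin promoter eGFP reporter.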 The class given is functional.
Test [13] can be described thus: insulin promoter down-regulators in MIN6 cells, imaging, high-content screening, mouse beta cells (AID 1628). The class given is functional.
Test [14] deals with Delta-type opioid receptor (Homo sapiens, UniProt P41143). Kind of test: Counterscreen for agonists of heterodimerization of the mu 1 (OPRM1) and delta 1 (OPRD1) opioid receptors: Luminescence-based cell-based high throughput dose response assay to identify agonists of OPRD1 homodimerization. [Related pubchem assays (depositor defined):AID504326, AID504355, AID504692, AID504904, AID504905]. The test is classed as functional. Background: A counterscreen serves to expose hits that act by an unwanted route or on another target.
Sequence of Delta-type opioid receptor (P41143 whole entry): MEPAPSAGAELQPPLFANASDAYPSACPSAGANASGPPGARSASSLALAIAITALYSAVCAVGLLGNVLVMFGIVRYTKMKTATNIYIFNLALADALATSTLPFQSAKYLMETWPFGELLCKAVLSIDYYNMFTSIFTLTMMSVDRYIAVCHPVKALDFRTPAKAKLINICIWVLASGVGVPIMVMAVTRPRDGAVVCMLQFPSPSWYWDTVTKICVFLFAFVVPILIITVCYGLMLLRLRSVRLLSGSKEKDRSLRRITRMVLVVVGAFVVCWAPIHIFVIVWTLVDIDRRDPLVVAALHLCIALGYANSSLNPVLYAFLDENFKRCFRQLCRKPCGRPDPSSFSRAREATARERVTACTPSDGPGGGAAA

The target in a further test is Mu-type opioid receptor (Homo sapiens, UniProt P35372). Put plainly: Counterscreen for agonists of heterodimerization of the mu 1 (OPRM1) and delta 1 (OPRD1) opioid receptors: Luminescence-based cell-based high throughput dose response assay to identify agonists of OPRM1 homodimerization. The test is classed as functional.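 Further: U2OS cells expressing OPRM1 and beta-arrestin as split beta-galactosidase partners.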
Sequence of Mu-type opioid receptor (P35372 whole entry): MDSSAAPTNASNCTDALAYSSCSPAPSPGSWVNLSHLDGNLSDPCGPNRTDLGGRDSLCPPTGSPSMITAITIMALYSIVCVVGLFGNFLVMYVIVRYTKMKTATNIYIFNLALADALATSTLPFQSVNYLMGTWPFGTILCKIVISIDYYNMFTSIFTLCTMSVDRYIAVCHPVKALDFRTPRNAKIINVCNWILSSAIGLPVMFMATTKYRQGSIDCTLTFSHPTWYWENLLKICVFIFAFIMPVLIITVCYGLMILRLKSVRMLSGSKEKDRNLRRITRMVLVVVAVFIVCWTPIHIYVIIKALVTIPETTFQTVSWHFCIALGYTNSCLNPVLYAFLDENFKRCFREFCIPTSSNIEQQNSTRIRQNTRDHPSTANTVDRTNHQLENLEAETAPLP
For test [15], the target named is 5-hydroxytryptamine receptor 5A (Homo sapiens, UniProt P47898). Kind of test: Counterscreen for agonists of OPRM1-OPRD1 heterodimerization: luminescence-based cell-based high throughput dose response assay to identify agonists of 5-hydroxytryptamine (serotonin) 5A receptor (HTR5A). [Related pubchem assays (depositor defined):AID504326, AID504355, AID504692, AID504904, AID504905]. The class given is functional.
Sequence of 5-hydroxytryptamine receptor 5A (P47898 whole entry): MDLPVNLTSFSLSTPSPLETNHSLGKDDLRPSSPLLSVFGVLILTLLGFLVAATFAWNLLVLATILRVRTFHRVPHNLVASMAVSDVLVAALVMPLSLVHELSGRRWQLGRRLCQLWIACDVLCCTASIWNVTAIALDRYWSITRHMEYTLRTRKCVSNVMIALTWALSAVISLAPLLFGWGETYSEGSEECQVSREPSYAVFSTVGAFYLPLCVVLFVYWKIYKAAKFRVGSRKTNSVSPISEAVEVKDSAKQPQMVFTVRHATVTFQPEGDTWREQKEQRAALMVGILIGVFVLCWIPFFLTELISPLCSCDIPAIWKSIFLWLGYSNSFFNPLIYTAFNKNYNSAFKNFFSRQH

The source made the active and inactive calls. A value given as a limit tells only on which side of the number the result lay.

Sequence of Beta-galactosidase (Q8VNN2 whole entry): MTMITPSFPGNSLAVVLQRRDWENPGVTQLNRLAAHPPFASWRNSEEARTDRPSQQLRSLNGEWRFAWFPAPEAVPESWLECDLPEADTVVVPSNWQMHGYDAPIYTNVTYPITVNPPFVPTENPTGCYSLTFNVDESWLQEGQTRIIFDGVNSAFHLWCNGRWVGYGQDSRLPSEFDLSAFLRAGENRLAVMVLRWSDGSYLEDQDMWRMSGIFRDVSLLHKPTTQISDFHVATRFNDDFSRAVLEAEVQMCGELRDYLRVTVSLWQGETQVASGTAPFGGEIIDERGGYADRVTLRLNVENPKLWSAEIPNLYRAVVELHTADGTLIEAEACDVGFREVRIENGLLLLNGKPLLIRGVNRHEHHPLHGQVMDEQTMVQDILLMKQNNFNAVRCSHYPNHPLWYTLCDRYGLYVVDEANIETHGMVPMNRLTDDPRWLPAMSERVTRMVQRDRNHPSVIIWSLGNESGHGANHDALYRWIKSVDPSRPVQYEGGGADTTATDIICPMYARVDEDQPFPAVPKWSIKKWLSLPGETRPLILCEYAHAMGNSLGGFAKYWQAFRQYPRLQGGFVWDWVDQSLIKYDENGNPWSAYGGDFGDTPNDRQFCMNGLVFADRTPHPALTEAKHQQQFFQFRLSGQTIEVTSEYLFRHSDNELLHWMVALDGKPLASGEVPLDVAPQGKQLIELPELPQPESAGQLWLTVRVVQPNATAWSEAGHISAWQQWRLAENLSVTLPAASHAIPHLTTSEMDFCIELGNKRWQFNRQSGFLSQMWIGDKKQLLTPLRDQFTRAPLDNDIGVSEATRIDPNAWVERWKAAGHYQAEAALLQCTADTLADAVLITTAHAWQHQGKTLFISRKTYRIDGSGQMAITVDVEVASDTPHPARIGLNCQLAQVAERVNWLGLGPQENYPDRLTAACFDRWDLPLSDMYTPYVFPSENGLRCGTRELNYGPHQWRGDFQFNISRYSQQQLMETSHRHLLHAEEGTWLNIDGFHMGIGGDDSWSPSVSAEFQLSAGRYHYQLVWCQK
Sequence of G-protein coupled receptor 55 (Q9Y2T6 whole entry): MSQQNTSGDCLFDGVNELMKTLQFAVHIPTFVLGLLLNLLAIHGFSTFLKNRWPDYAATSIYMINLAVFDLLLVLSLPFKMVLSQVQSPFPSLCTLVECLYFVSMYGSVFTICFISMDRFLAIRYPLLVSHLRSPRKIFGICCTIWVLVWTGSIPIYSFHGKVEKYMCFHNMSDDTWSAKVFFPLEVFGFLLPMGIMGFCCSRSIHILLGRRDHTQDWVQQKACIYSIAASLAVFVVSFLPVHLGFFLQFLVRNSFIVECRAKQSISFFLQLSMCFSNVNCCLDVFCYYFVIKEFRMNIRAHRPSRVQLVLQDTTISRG
Sequence of DNA dC->dU-editing enzyme APOBEC-3G (Q9HC16 whole entry): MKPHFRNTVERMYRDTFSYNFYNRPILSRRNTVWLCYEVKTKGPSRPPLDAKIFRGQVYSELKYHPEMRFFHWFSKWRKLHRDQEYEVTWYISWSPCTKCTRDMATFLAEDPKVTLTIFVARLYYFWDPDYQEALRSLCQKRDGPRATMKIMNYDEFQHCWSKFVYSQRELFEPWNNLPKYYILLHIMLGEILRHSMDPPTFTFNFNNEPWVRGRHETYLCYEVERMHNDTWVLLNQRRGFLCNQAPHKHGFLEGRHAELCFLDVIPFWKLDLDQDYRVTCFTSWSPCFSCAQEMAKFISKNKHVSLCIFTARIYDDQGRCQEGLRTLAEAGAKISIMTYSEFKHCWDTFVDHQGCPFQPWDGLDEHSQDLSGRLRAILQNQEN

One may read the IC50 as the point on the concentration scale where inhibition reaches its midpoint. Take `O=c1c2c([N+](=O)[O-])cc([N+](=O)[O-])cc2sn1-c1ccc(F)c(Cl)c1`: the IC50 in test [1] is 12 µM (active); on Phosphomannomutase 2 it was 1.26 µM (active); in test [2], 0.192 µM (active).

Usually CC50 stands for the concentration giving 50% cytotoxicity. Consider `Cc1ccc(C(C)NC(=O)/C(C#N)=C\c2c(C)[nH]c3ccccc23)cc1` (centres undefined), for which the CC50 in test [3] is 19.4 µM (active). In addition, the IC50 in test [4] was > 100 µM (not active); in [5], > 100 µM (inactive).

As usually defined, the EC50 is the concentration needed to bring the measured effect to its halfway point. Take `COCCCN=C(S)NNC(=O)c1cccnc1`: the EC50 in test [6] was > 32 µM (inactive).

The AC50 is the concentration at which the activity in the assay is half-maximal. `N#Cc1c(N2CCN(C(=O)c3ccccc3)CC2)nc(-c2ccccc2)c2c1CCCC2`: the AC50 on CAAX prenyl protease 2 is 8.3 µM (active); at CAAX prenyl protease 1, 1.6 µM (active). For the same compound, the IC50 (at Beta-galactosidase; in test [7]) was > 66.6 µM (inactive) each time.

For `CC(NC(=O)c1sc2cc([N+](=O)[O-])ccc2c1Cl)C(C)(C)C` (centres undefined), the EC50 at Hexokinase HKDC1 is 23.6 µM (inactive); at Hexokinase-1, 46.8 µM (inactive). Moreover, the IC50 in [8] is 18.4 µM (active); in test [9], > 80 µM (inactive); in test [10], > 100 µM (inactive).

Turning to `COC(=O)c1c(NC(=O)Cc2cccs2)sc2c1CCC(C)C2` (centres undefined), in test [11], the AC50 is 2.78 µM (active). Besides, the IC50 in test [12] was > 16 µM (inactive); in [13], 6.23 µM (active).

For `COC(=O)CCCNC(=O)c1ccc(OC2CCN(CCc3ccccc3)CC2)cc1`, the EC50 (in test [14]; at Mu-type opioid receptor; in test [15]) was > 92.5 µM (inactive) each time.

Take `CCCc1nc2oc3cc(OC)ccc3c(=O)c2c(=O)n1Cc1ccco1`: the IC50 was > 100 µM (not active) in test [4] and > 100 µM (inactive) in test [5].

The record behind these values is ChEMBL document CHEMBL1201862, “PubChem BioAssay data set” (2004).
